From the NIST ThermoML archive (doi:10.1021/je060271a)

Details: 343.15 K, Liquid, Vibrating tube method

CCCCC(=O)OCC(COC(=O)CCCC)(COC(=O)CCCC)COC(=O)CCCC [pentaerythritol tetrapentanoate]
Details | mass density [kg/m3]
12882 kPa | 988.2
12909 kPa | 988.3
12937 kPa | 988.2
12964 kPa | 988.3
12996 kPa | 988.3
13022 kPa | 988.5
13049 kPa | 988.3
13082 kPa | 988.4
13109 kPa | 988.3
13137 kPa | 988.5
13164 kPa | 988.4
13198 kPa | 988.5
13226 kPa | 988.4
13254 kPa | 988.4
13287 kPa | 988.5
13318 kPa | 988.6
13346 kPa | 988.6
13374 kPa | 988.6
13408 kPa | 988.7
13437 kPa | 988.6
13466 kPa | 988.7
13495 kPa | 988.7
13530 kPa | 988.7
13559 kPa | 988.7
13594 kPa | 988.8
13624 kPa | 988.8
13653 kPa | 988.9
13683 kPa | 988.8
13719 kPa | 988.9
13750 kPa | 989
13780 kPa | 989
13816 kPa | 989
13847 kPa | 989
13877 kPa | 989.1
13914 kPa | 988.9
13945 kPa | 989.2
13976 kPa | 989
14014 kPa | 989.2
14045 kPa | 989.2
14077 kPa | 989.2
14110 kPa | 989.1
14149 kPa | 989.1
14181 kPa | 989.1
14213 kPa | 989.3
14252 kPa | 989.2
14284 kPa | 989.4
14318 kPa | 989.2
14350 kPa | 989.3
14390 kPa | 989.6
14423 kPa | 989.4
14457 kPa | 989.4
14497 kPa | 989.5
14531 kPa | 989.5
14566 kPa | 989.5
14607 kPa | 989.5
14641 kPa | 989.7
14676 kPa | 989.6
14717 kPa | 989.7
14752 kPa | 989.7
14787 kPa | 989.7
14829 kPa | 989.7
14864 kPa | 989.6
14900 kPa | 989.8
14943 kPa | 989.7
14979 kPa | 989.8
15016 kPa | 989.9
15053 kPa | 989.8
15097 kPa | 989.9
15134 kPa | 989.8
15171 kPa | 989.9
15214 kPa | 989.9
15252 kPa | 990.1
15289 kPa | 989.9
15334 kPa | 990
15372 kPa | 990
15411 kPa | 990.2
15458 kPa | 990.1
15497 kPa | 990.1
15537 kPa | 990.3
15578 kPa | 990.2
15628 kPa | 990.3
15668 kPa | 990.3
15704 kPa | 990.5
15742 kPa | 990.3
15774 kPa | 990.4
15806 kPa | 990.4
15845 kPa | 990.4
15877 kPa | 990.6
15910 kPa | 990.4
15950 kPa | 990.4
15982 kPa | 990.5
16016 kPa | 990.5
16052 kPa | 990.6
16091 kPa | 990.6
16125 kPa | 990.7
16159 kPa | 990.6
16199 kPa | 990.8
16233 kPa | 990.7
16268 kPa | 990.8
16302 kPa | 990.8
16344 kPa | 990.7
16378 kPa | 990.9
16413 kPa | 990.8
16456 kPa | 990.9
16493 kPa | 991
16530 kPa | 991
16566 kPa | 991
16602 kPa | 991
16644 kPa | 990.9
16680 kPa | 991
16724 kPa | 991.1
16760 kPa | 991.1
16796 kPa | 991.1
16841 kPa | 991.2
16878 kPa | 991.1
16915 kPa | 991.1
16959 kPa | 991.1
16997 kPa | 991.2
17035 kPa | 991.2
17081 kPa | 991.3
17119 kPa | 991.3
17158 kPa | 991.3
17204 kPa | 991.4
17243 kPa | 991.4
17282 kPa | 991.4
17330 kPa | 991.6
17371 kPa | 991.5
17412 kPa | 991.6
17462 kPa | 991.6
17500 kPa | 991.5
17533 kPa | 991.6
17569 kPa | 991.6
17600 kPa | 991.6
17630 kPa | 991.5
17666 kPa | 991.6
17697 kPa | 991.7
17728 kPa | 991.8
17765 kPa | 991.9
17796 kPa | 991.9
17827 kPa | 991.7
17864 kPa | 991.9
17896 kPa | 991.9
17928 kPa | 991.9
17966 kPa | 991.9
17998 kPa | 991.8
18030 kPa | 992
18068 kPa | 992
18100 kPa | 992.1
18132 kPa | 992
18171 kPa | 991.9
18204 kPa | 992.2
18236 kPa | 992
18276 kPa | 992.1
18309 kPa | 992.1
18342 kPa | 992.1
18382 kPa | 992.2
18416 kPa | 992.2
18450 kPa | 992.1
18490 kPa | 992.3
18524 kPa | 992.4
18558 kPa | 992.3
18600 kPa | 992.4
18634 kPa | 992.4
18668 kPa | 992.5
18709 kPa | 992.5
18744 kPa | 992.5
18780 kPa | 992.5
18821 kPa | 992.4
18857 kPa | 992.7
18892 kPa | 992.5
18935 kPa | 992.7
18971 kPa | 992.6
19007 kPa | 992.6
19052 kPa | 992.7
19088 kPa | 992.6
19126 kPa | 992.7
19172 kPa | 992.8
19211 kPa | 992.9
19248 kPa | 992.8
19284 kPa | 992.9
19312 kPa | 992.8
19340 kPa | 992.9
19368 kPa | 992.9
19401 kPa | 992.9
19429 kPa | 992.9
19458 kPa | 993
19491 kPa | 992.9
19520 kPa | 993.1
19549 kPa | 993.1
19579 kPa | 993
19613 kPa | 993
19638 kPa | 993.1
19666 kPa | 993.2
19689 kPa | 993.1
19713 kPa | 993
19737 kPa | 993.1
19761 kPa | 993.2
19789 kPa | 993.2
19813 kPa | 993.2
19836 kPa | 993.2
19864 kPa | 993.2
19888 kPa | 993.3
19912 kPa | 993.3
19941 kPa | 993.3
19964 kPa | 993.3
19988 kPa | 993.4
20017 kPa | 993.3
20042 kPa | 993.4
20066 kPa | 993.3
20095 kPa | 993.4
20119 kPa | 993.6
20143 kPa | 993.5
20173 kPa | 993.5
20197 kPa | 993.5
20222 kPa | 993.5
20251 kPa | 993.5
20276 kPa | 993.5
20301 kPa | 993.6
20330 kPa | 993.7
20355 kPa | 993.4
20381 kPa | 993.7
20410 kPa | 993.7
20436 kPa | 993.7
20461 kPa | 993.5
20487 kPa | 993.7
20517 kPa | 993.6
20542 kPa | 993.6
20568 kPa | 993.7
20598 kPa | 993.7
20629 kPa | 993.8
20660 kPa | 993.8
20687 kPa | 993.8
20713 kPa | 993.9
20740 kPa | 993.9
20770 kPa | 993.8
20797 kPa | 993.9
20823 kPa | 993.8
20854 kPa | 993.9
20880 kPa | 994
20907 kPa | 993.9
20939 kPa | 994
20965 kPa | 994
20992 kPa | 994.1
21020 kPa | 993.9
21052 kPa | 994.1
21079 kPa | 994.1
21106 kPa | 994.1
21254 kPa | 994.2
21281 kPa | 994.3
21309 kPa | 994.2
21342 kPa | 994.3
21370 kPa | 994.3
22531 kPa | 995.1
22626 kPa | 995.2
22664 kPa | 995
22696 kPa | 995.3
23251 kPa | 995.5
23324 kPa | 995.7
23466 kPa | 995.7
23985 kPa | 996.2
24021 kPa | 996
24064 kPa | 996
24136 kPa | 996.2
24180 kPa | 996.1
24216 kPa | 996.2
24253 kPa | 996.2
24297 kPa | 996.3
24334 kPa | 996.4
24371 kPa | 996.3
24415 kPa | 996.2
24452 kPa | 996.3
24490 kPa | 996.5
24529 kPa | 996.4
24574 kPa | 996.5
24612 kPa | 996.4
24650 kPa | 996.5
24696 kPa | 996.4
24734 kPa | 996.4
24772 kPa | 996.5
24856 kPa | 996.5
24895 kPa | 996.7
24934 kPa | 996.7
24981 kPa | 996.8
25274 kPa | 996.9
25314 kPa | 997
25354 kPa | 996.9
25839 kPa | 997.2
25895 kPa | 997.4
26210 kPa | 997.4
26261 kPa | 997.5
26310 kPa | 997.5
26350 kPa | 997.5
26385 kPa | 997.6
26426 kPa | 997.6
26460 kPa | 997.6
26502 kPa | 997.8
26536 kPa | 997.7
26571 kPa | 997.8
26607 kPa | 997.7
26649 kPa | 997.7
26684 kPa | 997.9
26720 kPa | 997.9
26756 kPa | 997.9
26800 kPa | 997.9
26835 kPa | 998
26871 kPa | 998
26914 kPa | 998
26950 kPa | 998
26986 kPa | 998
27029 kPa | 998.1
27065 kPa | 998.2
27101 kPa | 998
27145 kPa | 998.2
27182 kPa | 998.1
27219 kPa | 998.2
27256 kPa | 998.2
27301 kPa | 998.2
27339 kPa | 998.2
27376 kPa | 998.2
27421 kPa | 998.2
27458 kPa | 998.2
